# Laboratory results as given in US8686152B2, “4,4-disubstituted piperidine derivatives useful as inhibitors of dipeptidyl peptidase-1 (DPP-1)” (Janssen Pharmaceutica NV, priority 2010, dated 2014).
# Target: T1, recombinant human DPP-1 (Cathepsin C) (Homo sapiens, UniProt P53634)
# T1 construct: made in house
# Experiment: DPP-1 Inhibition Assay (In Vitro), fluorogenic substrate GR-AMC
# Assay type: biochemical
# Details: 0.15 nM DPP-1, 10 uM GR-AMC, pH 7.0, room temperature; average value where tested multiple times
# Method: Test compounds were assessed for DPP-1 (Cathepsin C) inhibitory activity using a fluorogenic substrate, GR-AMC (Glycine-Arginine-amino-4-methylcoumarin, Bachem, I-1215). The amount of amino-methylcoumarin released is proportional to the DPP-1 activity, and the reaction is monitored kinetically with a Molecular Devices plate reader using black 96-well plates.
# All compounds were tested under room temperature conditions. The assay buffer consisted of 50 mM HEPES, pH 7.0, 100 mM NaCl, 2 mM glutathione (GSH), and 0.002% TWEEN 20. GSH and TWEEN 20 were added to the buffer fresh daily. Just prior to use, an in-house preparation of recombinant human DPP-1 (240 μM stock, MW 49.6 kD) was diluted 600-fold in assay buffer containing fresh 2 mM dithiothreitol (DTT) to activate the enzyme, then diluted into assay buffer (without DTT) 133-fold for a DPP-1 working solution of 3 nM. Test compounds were diluted in DMSO for 20× their final assay concentrations.
# Additions to a 96-well black Costar 3915 plates were as follows: 90 μL of 11 μM GR-AMC, 5 μL test compound (followed by mixing), and 5 μL 3 nM DPP-1 to start the reaction. Fluorescent reactions were monitored kinetically at 360 nm excitation, 440 nm emission on a Molecular Devices Spectramax XPS reader. The Softmax Pro software of the reader determined the initial velocity of the selected data (the first 3-5 minutes of the reaction), and the best linear regression fit of the initial kinetic data. Final assay conditions were 0.15 nM DPP-1, 10 uM GR-AMC, 50 mM HEPES, pH 7.0, 100 mM NaCl, 2 mM GSH, 0.002% TWEEN 20, 1 uM DTT, 5.0% DMSO. Initial velocity rates were plotted vs. test compound concentration by use of a four-parameter logistics equation (nonlinear regression, sigmoidal dose-response (variable slope), with fixed Hill (1.0) using GraphPad Prism® software for determination of DPP-1 IC50. Within-run assay coefficient of variation (CV) was generally <10%; between-run CV <20%.
# Representative compounds of the present invention were tested according to the procedure as described above, with results as listed in Table 5, below.
# T1 sequence (P53634 25-463): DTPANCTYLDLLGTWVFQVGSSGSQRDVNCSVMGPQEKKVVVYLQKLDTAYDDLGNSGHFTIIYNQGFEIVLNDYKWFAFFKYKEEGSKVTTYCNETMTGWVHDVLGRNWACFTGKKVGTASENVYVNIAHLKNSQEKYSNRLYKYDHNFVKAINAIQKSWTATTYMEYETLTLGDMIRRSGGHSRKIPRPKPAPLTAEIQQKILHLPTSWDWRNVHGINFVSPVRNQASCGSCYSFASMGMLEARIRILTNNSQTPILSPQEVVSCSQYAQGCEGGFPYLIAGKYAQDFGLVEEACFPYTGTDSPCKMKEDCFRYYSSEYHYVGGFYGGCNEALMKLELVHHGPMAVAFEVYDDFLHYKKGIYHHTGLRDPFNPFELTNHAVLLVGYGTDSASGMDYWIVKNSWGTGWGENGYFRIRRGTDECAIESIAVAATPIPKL
row,Structure (SMILES),IC50 [nM]
1,N[C@@H](Cc1cccs1)C(=O)N1CCC(Cc2ccc(NS(=O)(=O)C(F)(F)F)cc2)(C(=O)NC2CCCCC2)CC1 [Compound 89],150
2,CC(=O)Nc1cccc(-c2ccc(CC3(C(=O)NC4CCCCC4)CCN(C(=O)[C@@H](N)Cc4cccs4)CC3)cc2)c1 [Compound 54],31
3,CCSCC[C@H](N)C(=O)N1CCC(Cc2ccc(-c3ccccc3)cc2)(C(=O)NCC2CCCCC2)CC1 [Compound 106],5600
4,CC[C@H](N)C(=O)N1CCC(Cc2ccccc2)(C(=O)OCC2CCCCC2)CC1 [Compound 10],~5000
5,N[C@@H](Cc1cccs1)C(=O)N1CCC(C(=O)NC2CCOCC2)(c2ccccc2)CC1 [Compound 103],310
6,N[C@@H](Cc1cccs1)C(=O)N1CCC(Cc2ccncc2)(C(=O)N2CCOCC2)CC1 [Compound 122],1300
7,N[C@@H](Cc1cccs1)C(=O)N1CCC(Cc2ccncc2)(C(=O)NC2CCCCC2)CC1 [Compound 71],37
8,N[C@@H](Cc1cccs1)C(=O)N1CCC(Cc2cccc(-c3ccc(C(=O)O)cc3)c2)(C(=O)NC2CCCCC2)CC1 [Compound 102],190
9,N[C@@H](Cc1cccs1)C(=O)N1CCC(Cc2ccc(C(=O)NC3CCCCC3)cc2)(C(=O)NC2CCCCC2)CC1 [Compound 56],49
10,N[C@@H](Cc1c[nH]cn1)C(=O)N1CCC(Cc2ccc(F)cc2F)(C(=O)OCC2CCCCC2)CC1 [Compound 28],1700
11,N[C@@H](Cc1cccs1)C(=O)N1CCC(Cc2ccc(-c3cccc(C(=O)O)c3)cc2)(C(=O)NC2CCCCC2)CC1 [Compound 55],100
12,COC[C@H](N)C(=O)N1CCC(Cc2ccc(-c3ccccc3)cc2)(C(=O)NC2CCCCC2)CC1 [Compound 39],18000
13,CC[C@H](N)C(=O)N1CCC(Cc2cccnc2)(C(=O)NC2CCCCC2)CC1 [Compound 67],9100
14,CN(CC1CCCCC1)C(=O)C1(c2ccccc2)CCN(C(=O)[C@@H](N)Cc2cccs2)CC1 [Compound 134],16
15,N[C@@H](Cc1cccs1)C(=O)N1CCC(Cc2cccc(-c3cncnc3)c2)(C(=O)NC2CCCCC2)CC1 [Compound 97],39
16,CC[C@H](N)C(=O)N1CCC(C(=O)N(C)C2CCCCC2)(c2ccccc2)CC1 [Compound 138],1700
17,CCC[C@H](N)C(=O)N1CCC(Cc2cccnc2)(C(=O)NCC2CCCCC2)CC1 [Compound 136],6500
18,N[C@@H](Cc1cccs1)C(=O)N1CCC(Cc2ccc(C(=O)O)cc2)(C(=O)NC2CCCCC2)CC1 [Compound 62],360
19,N[C@@H](Cc1cccs1)C(=O)N1CCC(Cc2ccc(-c3ccc4c(c3)OCO4)cc2)(C(=O)NC2CCCCC2)CC1 [Compound 40],35
20,N[C@@H](Cc1cccs1)C(=O)N1CCC(C(=O)NC2=NCCS2)(c2ccccc2)CC1 [Compound 114],220

row,Structure (SMILES),IC50 [nM]
1,N[C@@H](Cc1cccs1)C(=O)N1CCC(Cc2cccnc2)(C(=O)NC2CCCCC2)CC1 [Compound 66],54
2,N[C@@H](Cc1cccs1)C(=O)N1CCC(Cc2ccc(C(=O)Nc3ccccc3)cc2)(C(=O)NC2CCCCC2)CC1 [Compound 60],33
3,N[C@@H](Cc1cccs1)C(=O)N1CCC(Cc2ccc(-c3ccc(O)nc3)cc2)(C(=O)NC2CCCCC2)CC1 [Compound 49],24
4,N[C@@H](Cc1cccs1)C(=O)N1CCC(C(=O)NCC2CCCCC2)(c2ccccc2)CC1 [Compound 91],23
5,CC[C@H](N)C(=O)N1CCC(Cc2ccncc2)(C(=O)OCC2CCCCC2)CC1 [Compound 21],7400
6,COc1ccc(-c2ccc(CC3(C(=O)NC4CCCCC4)CCN(C(=O)[C@@H](N)Cc4cccs4)CC3)cc2)cn1 [Compound 44],29
7,N[C@@H](Cc1cccs1)C(=O)N1CCC(Cc2ccc([N+](=O)[O-])cc2)(C(=O)NC2CCCCC2)CC1 [Compound 81],24
8,N[C@@H](Cc1cccs1)C(=O)N1CCC(Cc2ccc(-c3cccnc3Cl)cc2)(C(=O)NC2CCCCC2)CC1 [Compound 48],39
9,N[C@@H](Cc1cccs1)C(=O)N1CCC(Cc2ccccc2)(C(=O)NC2CCCCC2)CC1 [Compound 86],40
10,N#Cc1ccc(CC2(C(=O)OCC3CCCCC3)CCN(C(=O)[C@@H](N)Cc3c[nH]cn3)CC2)cc1 [Compound 16],1200
11,N[C@@H](Cc1cccs1)C(=O)N1CCC(Cc2ccc(I)cc2)(C(=O)NC2CCCCC2)CC1 [Compound 41],37
12,CC[C@H](N)C(=O)N1CCC(Cc2ccc(-c3ccccc3)cc2)(C(=O)NCC2CCCCC2)CC1 [Compound 5],3000
13,Cc1ccc(C2(C(=O)NCC3CCCCC3)CCN(C(=O)[C@@H](N)Cc3cccs3)CC2)cc1 [Compound 129],17
14,COc1cccc(CC2(C(=O)NC3CCCCC3)CCN(C(=O)[C@@H](N)Cc3cccs3)CC2)c1 [Compound 84],56
15,N[C@@H](Cc1cccs1)C(=O)N1CCC(Cc2ccc(-c3ccncc3)cc2)(C(=O)NC2CCCCC2)CC1 [Compound 42],29
16,N[C@@H](Cc1ccc(Cl)s1)C(=O)N1CCC(Cc2ccc(-c3ccccc3)cc2)(C(=O)NC2CCCCC2)CC1 [Compound 78],5600
17,N[C@@H](Cc1nccs1)C(=O)N1CCC(Cc2ccc(-c3ccccc3)cc2)(C(=O)NC2CCCCC2)CC1 [Compound 33],230
18,N[C@@H](Cc1cccs1)C(=O)N1CCC(Cc2ccccc2)(C(=O)OCC2CCCCC2)CC1 [Compound 11],220
19,CS(=O)(=O)Nc1ccc(CC2(C(=O)NC3CCCCC3)CCN(C(=O)[C@@H](N)Cc3cccs3)CC2)cc1 [Compound 88],31
